Patent US9133148B2, “Carbamate compounds and of making and using same” (Abide Therapeutics, Inc., priority 2012, dated 2015)

What was measured:
Mouse brain MAGL = Mouse brain MAGL (Mus musculus (Mouse), UniProt O35678); test: Mouse brain proteomes from inhibitor treated mice (oral gavage, ABPP of brain MAGL); type: in vivo; details: for Mouse brain MAGL (% inhibition at 20 mg/kg, p.o.) / Mouse brain MAGL (% inhibition at 5 mg/kg, p.o.): 4 h following administration; for ED50: po
Protocol: Preparation of Mouse Brain Proteomes from Inhibitor Treated Mice.
Inhibitors were administered to wild-type C57Bl/6J by oral gavage in a vehicle of polyethylene glycol.

FAAH [1] = molecular target: T1, FAAH (Mus musculus (Mouse), UniProt O08914); test: In vitro competitive activity-based protein profiling (FP-Rh), mouse FAAH; type: biochemical; details: mouse brain membrane proteome
Protocol: (§1) In Vitro Competitive Activity-Based Protein Profiling.
(§2) Proteomes (mouse brain membrane fraction or cell lysates) ([…], 1.0 mg/mL total protein concentration) were preincubated with varying concentrations of inhibitors at 37° C. After 30 min, FP-Rh (1.0 μL, 50 μM in DMSO) was added and the mixture was incubated for another 30 min at 37° C. Reactions were quenched with SDS loading buffer (50 μL—4×) and run on SDS-PAGE.

MAGL [2] = molecular target: T2, MAGL (Mus musculus (Mouse), UniProt O35678); test: In vitro competitive activity-based protein profiling (FP-Rh), mouse MAGL; type: biochemical; details: mouse brain membrane proteome
Protocol: as §1, §2

Human MAGL = Human MAGL (Homo sapiens (Human), UniProt Q99685); test: Competitive ABPP with recombinant human MAGL expressed in HEK293T cells; type: biochemical; details: hMAGL in HEK293T cell lysates
Protocol: as §2
Recombinant Expression of Human MAGL in HEK293T Cells.
Cell lysates were diluted with mock proteomes for use in competitive ABPP experiments.

ABHD6 [3] = molecular target: T3, ABHD6 (Mus musculus (Mouse), UniProt Q8R2Y0); test: In vitro competitive activity-based protein profiling (FP-Rh), mouse ABHD6; type: biochemical; details: mouse brain membrane proteome
Protocol: as §1, §2

FAAH [4] = molecular target: T1, FAAH; test: Competitive ABPP, % inhibition at 1 uM, FAAH; type: biochemical
In short: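 Mouse brain membrane proteome or cell lysate (1.0 mg/mL protein) preincubated 30 min at 37° C with inhibitor, then labelled 30 min at 37° C with FP-Rh probe. Resolved by SDS-PAGE; activity from in-gel fluorescence intensity of FAAH band.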

MAGL [5] = molecular target: T2, MAGL; test: Competitive ABPP, % inhibition at 1 uM, MAGL; type: biochemical
Protocol: as §1, §2

ABHD6 [6] = molecular target: T3, ABHD6; test: Competitive ABPP, % inhibition at 1 uM, ABHD6; type: biochemical
Protocol: as §1, §2

T2 sequence (O35678 whole entry): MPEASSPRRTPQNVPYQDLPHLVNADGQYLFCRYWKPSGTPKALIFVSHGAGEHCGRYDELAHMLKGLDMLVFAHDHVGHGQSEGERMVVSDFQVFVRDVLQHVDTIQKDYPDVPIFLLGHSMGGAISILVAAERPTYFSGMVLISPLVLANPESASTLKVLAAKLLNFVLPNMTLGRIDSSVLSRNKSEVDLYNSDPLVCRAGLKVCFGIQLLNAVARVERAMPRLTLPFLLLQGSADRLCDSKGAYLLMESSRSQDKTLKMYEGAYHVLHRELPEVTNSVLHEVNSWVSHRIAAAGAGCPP
Mouse brain MAGL, sequence (O35678 whole entry): as above
Human MAGL, sequence (Q99685 whole entry): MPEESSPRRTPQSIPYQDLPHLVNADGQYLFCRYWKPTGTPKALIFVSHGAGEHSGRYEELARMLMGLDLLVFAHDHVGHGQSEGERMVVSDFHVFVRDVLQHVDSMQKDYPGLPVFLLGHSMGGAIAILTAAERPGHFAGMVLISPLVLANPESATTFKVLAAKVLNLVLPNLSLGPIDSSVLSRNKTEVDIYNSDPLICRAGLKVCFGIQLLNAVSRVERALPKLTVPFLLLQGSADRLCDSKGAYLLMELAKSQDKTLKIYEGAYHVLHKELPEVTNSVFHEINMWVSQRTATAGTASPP
T1 sequence (O08914 whole entry): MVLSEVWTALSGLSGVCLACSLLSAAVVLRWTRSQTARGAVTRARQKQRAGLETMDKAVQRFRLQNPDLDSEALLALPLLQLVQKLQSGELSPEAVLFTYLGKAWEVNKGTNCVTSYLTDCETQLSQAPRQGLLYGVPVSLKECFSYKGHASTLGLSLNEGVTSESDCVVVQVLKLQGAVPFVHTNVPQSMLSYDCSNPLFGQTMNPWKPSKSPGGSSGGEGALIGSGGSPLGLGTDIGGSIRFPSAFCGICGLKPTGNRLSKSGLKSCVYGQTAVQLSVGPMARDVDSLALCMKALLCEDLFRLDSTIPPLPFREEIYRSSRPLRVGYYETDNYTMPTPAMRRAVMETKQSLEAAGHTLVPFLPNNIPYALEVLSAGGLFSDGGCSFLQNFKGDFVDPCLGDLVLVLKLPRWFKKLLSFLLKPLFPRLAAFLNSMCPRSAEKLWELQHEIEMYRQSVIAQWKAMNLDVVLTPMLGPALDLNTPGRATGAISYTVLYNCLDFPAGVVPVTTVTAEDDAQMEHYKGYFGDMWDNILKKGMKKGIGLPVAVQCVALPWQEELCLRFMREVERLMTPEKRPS
T3 sequence (Q8R2Y0 whole entry): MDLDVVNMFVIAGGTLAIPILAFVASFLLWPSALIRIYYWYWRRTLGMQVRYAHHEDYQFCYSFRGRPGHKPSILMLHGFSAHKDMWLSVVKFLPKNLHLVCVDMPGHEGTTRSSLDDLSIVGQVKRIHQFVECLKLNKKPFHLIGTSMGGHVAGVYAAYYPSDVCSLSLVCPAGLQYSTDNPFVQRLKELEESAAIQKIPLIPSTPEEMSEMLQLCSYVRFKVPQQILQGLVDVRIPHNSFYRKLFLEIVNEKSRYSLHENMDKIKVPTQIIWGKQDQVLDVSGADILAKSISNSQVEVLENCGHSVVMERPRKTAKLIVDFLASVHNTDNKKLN

IC50 (FAAH [1]; competitive ABPP) [nM] | IC50 (MAGL [2]; competitive ABPP) [nM] | IC50 (Human MAGL) [nM] | IC50 (ABHD6 [3]; competitive ABPP) [nM] | IC50 (FAAH [1]; competitive ABPP (Table 7)) [nM] | IC50 (MAGL [2]; competitive ABPP (Table 7)) [nM] | IC50 (ABHD6 [3]; competitive ABPP (Table 7)) [nM] | Mouse brain MAGL (% inhibition at 5 mg/kg, p.o.) (Mouse brain MAGL) [%] | SMILES | other results
> 10000 | < 100 | – | 100 to 1000 | – | – | – | – | COC(c1ccc2c(c1)OCO2)(c1ccc2c(c1)OCO2)C1CCN(C(=O)OC(C(F)(F)F)C(F)(F)F)CC1 [Example 1b, 1,1,1,3,3,3-hexafluoropropan-2-yl 4-(bis(benzo[d][1,3]dioxol-5-yl)(methoxy)methyl)piperidine-1-carboxylate] | Mouse brain MAGL (% inhibition at 20 mg/kg, p.o.) (Mouse brain MAGL): 13%
> 10000 | < 100 | < 100 | > 1000 | – | – | – | – | O=C(OC(C(F)(F)F)C(F)(F)F)N1CCC(C(c2ccc3c(c2)OCO3)c2ccc3c(c2)OCO3)CC1 [Example 1c, 1,1,1,3,3,3-hexafluoropropan-2-yl 4-(bis(benzo[d][1,3]dioxol-5-yl)methyl)piperidine-1-carboxylate] | Mouse brain MAGL (% inhibition at 20 mg/kg, p.o.) (Mouse brain MAGL): >95%
> 10000 | < 100 | < 100 | > 1000 | – | – | – | – | O=C(OC(C(F)(F)F)C(F)(F)F)N1CCN(C(c2ccc(F)cc2)c2ccc(F)cc2)CC1 [Example 2a, 1,1,1,3,3,3-hexafluoropropan-2-yl 4-(bis(4-fluorophenyl)methyl)-piperazine-1-carboxylate] | Mouse brain MAGL (% inhibition at 20 mg/kg, p.o.) (Mouse brain MAGL): >95%
> 10000 | > 1000 | > 1000 | > 1000 | – | – | – | – | CC(=O)Nc1ccc(S(=O)(=O)N2CCN(C(=O)OC(C(F)(F)F)C(F)(F)F)CC2)cc1 [Example 4e, 1,1,1,3,3,3-hexafluoropropan-2-yl 4-((4-acetamidophenyl)sulfonyl)-piperazine-1-carboxylate] | –
> 10000 | > 1000 | > 1000 | > 1000 | – | – | – | – | CC(C)c1cc(C(C)C)c(S(=O)(=O)N2CCN(C(=O)OC(C(F)(F)F)C(F)(F)F)CC2)c(C(C)C)c1 [Example 4f, 1,1,1,3,3,3-hexafluoropropan-2-yl 4-((2,4,6-triisopropylphenyl)-sulfonyl)piperazine-1-carboxylate] | –
> 10000 | 100 to 1000 | 100 to 1000 | 100 to 1000 | – | – | – | – | Cc1ccccc1S(=O)(=O)N1CCN(C(=O)OC(C(F)(F)F)C(F)(F)F)CC1 [Example 4g, 1,1,1,3,3,3-hexafluoropropan-2-yl 4-(o-tolylsulfonyl)piperazine-1-carboxylate] | –
> 10000 | < 100 | > 1000 | > 1000 | – | – | – | – | O=C(OC(C(F)(F)F)C(F)(F)F)N1CCN(S(=O)(=O)c2ccc3ccccc3c2)CC1 [Example 4h, 1,1,1,3,3,3-hexafluoropropan-2-yl 4-(naphthalen-2-ylsulfonyl)-piperazine-1-carboxylate] | –
> 10000 | 100 to 1000 | 100 to 1000 | > 1000 | – | – | – | – | O=C(OC(C(F)(F)F)C(F)(F)F)N1CCN(S(=O)(=O)c2cccc(C(F)(F)F)c2)CC1 [Example 4i, 1,1,1,3,3,3-hexafluoropropan-2-yl 4-((3-(trifluoromethyl)phenyl)-sulfonyl)piperazine-1-carboxylate] | –
> 10000 | 100 to 1000 | – | < 100 | – | – | – | – | CNC(=O)C(OC(=O)N1CCN(C(c2ccc(Cl)cc2)c2ccc(Cl)cc2)CC1)C(F)(F)F (stereo not shown) [Example 6j, 1,1,1-trifluoro-3-(methylamino)-3-oxopropan-2-yl 4-(bis(4-chlorophenyl)methyl)piperazine-1-carboxylate] | Mouse brain MAGL (% inhibition at 20 mg/kg, p.o.) (Mouse brain MAGL): >95%
– | – | – | – | > 10000 | 100 to 1000 | > 1000 | – | CC(=O)NC1CCN(c2cc(Cl)ccc2CN2CCN(C(=O)OC(C(F)(F)F)C(F)(F)F)CC2)C1 (stereo not shown) [Example 9af, 1,1,1,3,3,3-hexafluoropropan-2-yl 4-(2-(3-acetamidopyrrolidin-1-yl)-4-chlorobenzyl)piperazine-1-carboxylate] | ED50 (Mouse brain MAGL): < 4 mg/kg
– | – | – | – | > 10000 | < 100 | > 1000 | 75 | O=C(OC(C(F)(F)F)C(F)(F)F)N1CCN(Cc2cccc(Cl)c2N2CCCC2)CC1 [Example 9ar, 1,1,1,3,3,3-hexafluoropropan-2-yl 4-(3-chloro-2-(pyrrolidin-1-yl)benzyl)piperazine-1-carboxylate] | –
– | – | – | – | > 10000 | < 100 | > 1000 | 75 | O=C(OC(C(F)(F)F)C(F)(F)F)N1CCN(Cc2ccc(Cl)cc2N2CCC3(CCOCC3)C2)CC1 [Example 9av, 1,1,1,3,3,3-hexafluoropropan-2-yl 4-(4-chloro-2-(8-oxa-2-azaspiro[4.5]decan-2-yl)benzyl)piperazine-1-carboxylate] | –
– | – | – | – | > 10000 | < 100 | > 1000 | 75 | O=C(OC(C(F)(F)F)C(F)(F)F)N1CCN(Cc2ccc(Cl)cc2N2CCC3(CCNC3=O)CC2)CC1 [Example 9ax, 1,1,1,3,3,3-hexafluoropropan-2-yl 4-(4-chloro-2-(1-oxo-2,8-diazaspiro[4.5]decan-8-yl)benzyl)piperazine-1-carboxylate] | –
– | – | – | – | > 10000 | < 100 | > 1000 | 50 | O=C(OC(C(F)(F)F)C(F)(F)F)N1CCN(Cc2ccc(Cl)cc2N2CCC2)CC1 [Example 9ay, 1,1,1,3,3,3-hexafluoropropan-2-yl 4-(2-(azetidin-1-yl)-4-chlorobenzyl)piperazine-1-carboxylate] | –
– | – | – | – | > 10000 | < 100 | 100 to 1000 | 25 | O=C(OC(C(F)(F)F)C(F)(F)F)N1CCN(Cc2ccc(Cl)cc2N2Cc3cccnc3C2)CC1 [Example 9bh, 1,1,1,3,3,3-hexafluoropropan-2-yl 4-(4-chloro-2-(5H-pyrrolo[3,4-b]pyridin-6(7H)-yl)benzyl)piperazine-1-carboxylate] | –
– | – | – | – | > 10000 | < 100 | > 1000 | 50 | O=C(OC(C(F)(F)F)C(F)(F)F)N1CCN(Cc2ccc(Cl)cc2N2CCN3CCC[C@@H]3C2)CC1 [Example 9bi, (R)-1,1,1,3,3,3-hexafluoropropan-2-yl 4-(4-chloro-2-(hexahydropyrrolo[1,2-a]pyrazin-2(1H)-yl)benzyl)piperazine-1-carboxylate] | –
– | – | – | – | > 10000 | < 100 | 100 to 1000 | 75 | CS(=O)(=O)N1CCN(c2cc(Cl)ccc2CN2CCN(C(=O)OC(C(F)(F)F)C(F)(F)F)CC2)CC1 [Example 9bj, 1,1,1,3,3,3-hexafluoropropan-2-yl 4-(4-chloro-2-(4-(methylsulfonyl)piperazin-1-yl)benzyl)piperazine-1-carboxylate] | –
– | – | – | – | > 10000 | < 100 | > 1000 | – | O=C(OC(C(F)(F)F)C(F)(F)F)N1CCN(Cc2cccc(F)c2N2CCOCC2)CC1 [Example 9d, 1,1,1,3,3,3-hexafluoropropan-2-yl 4-[[3-fluoro-2-(morpholin-4-yl)phenyl]methyl]piperazine-1-carboxylate] | ED50 (Mouse brain MAGL): < 4 mg/kg
– | – | – | – | > 10000 | < 100 | > 1000 | 75 | O=C(OC(C(F)(F)F)C(F)(F)F)N1CCN(Cc2cc(Cl)ccc2N2CCCC2)CC1 [Example 9n, 1,1,1,3,3,3-hexafluoropropan-2-yl 4-[[5-chloro-2-(pyrrolidin-1-yl)phenyl]methyl]piperazine-1-carboxylate] | inhibition at 1 µM (FAAH [4]): < 25%; inhibition at 1 µM (MAGL [5]): 25 to 75%; inhibition at 1 µM (ABHD6 [6]): 25 to 75%
– | – | – | – | > 10000 | < 100 | 100 to 1000 | 75 | CC(C)n1cc(CN2CCN(C(=O)OC(C(F)(F)F)C(F)(F)F)CC2)c(-c2ccccc2Cl)n1 [Example 10i, 1,1,1,3,3,3-hexafluoropropan-2-yl 4-[[3-(2-chlorophenyl)-1-(propan-2-yl)-1H-pyrazol-4-yl]methyl]piperazine-1-carboxylate] | –
– | – | – | – | > 10000 | < 100 | > 1000 | 75 | O=C(OC(C(F)(F)F)C(F)(F)F)N1CCN(Cc2ccc(-c3ccccc3)cc2C(=O)N2CCCC2)CC1 [Example 11y, 1,1,1,3,3,3-hexafluoropropan-2-yl 4-([4-phenyl-2-[(pyrrolidin-1-yl)carbonyl]phenyl]methyl)piperazine-1-carboxylate] | –

SMILES | IC50 (FAAH [1]; competitive ABPP) [nM] | IC50 (MAGL [2]; competitive ABPP) [nM] | IC50 (Human MAGL) [nM] | IC50 (ABHD6 [3]; competitive ABPP) [nM] | IC50 (FAAH [1]; competitive ABPP (Table 7)) [nM] | IC50 (MAGL [2]; competitive ABPP (Table 7)) [nM] | IC50 (ABHD6 [3]; competitive ABPP (Table 7)) [nM] | Mouse brain MAGL (% inhibition at 5 mg/kg, p.o.) (Mouse brain MAGL) [%] | other results
O=C(OC(C(F)(F)F)C(F)(F)F)N1CCC(C(O)(c2ccc3c(c2)OCO3)c2ccc3c(c2)OCO3)CC1 [Example 1a, 1,1,1,3,3,3-hexafluoropropan-2-yl 4-(bis(benzo[d][1,3]dioxol-5-yl)(hydroxy)methyl)piperidine-1-carboxylate] | > 10000 | < 100 | < 100 | > 1000 | – | – | – | – | Mouse brain MAGL (% inhibition at 20 mg/kg, p.o.) (Mouse brain MAGL): >95%
